Results: patent publication US20220002806A1, “BIOMARKER” (ERBER AKTIENGESELLSCHAFT, priority 2018, published 2022)

What was measured:
[1] = system: miRNAs in uterus tissue; assay: Small RNA sequencing (RNA-Seq) of miRNAs in uterus tissue of ZEN-exposed piglets; assay type: in vivo, pig (Sus scrofa); details: for fold change of ssc-miRNA-542-3p in uterus compared to the control group: highest fold change of the group
Source text: Weaned female piglets (sow: Landrace×Large White, boar: Pietrain; 30+/−2 days old) were obtained from a local producer and individually tagged. Piglets were housed in slatted floor pens under controlled environmental conditions. After an acclimatization period of seven days, twenty-four female piglets were selected based on both body weight and vulva size, and allocated to one of four groups (6 animals/group). Piglets received either blank feed (negative control; Ctrl) or feed contaminated with ZEN in three increasing concentrations (ZEN low: 0.17 mg/kg diet; ZEN medium: 1.5 mg/kg diet; ZEN high: 4.6 mg/kg diet). During the 28-day experimental period, each treatment group was given free access to water and the assigned diet. The pigs were observed daily and weighed weekly.
After 28 days of dietary exposure to the experimental diets, pigs were anesthetized by intramuscular injection of ketamine (0.1 mL/kg body weight (b.w.) Narketan®, Vétoquinol GmbH, Ravensburg, Germany) and azaperone (0.03 mL/kg b.w.; Stresnil®, Janssen-Cilag, Neuss, Germany). Subsequently, animals were euthanized by intracardial injection of T61® (Intervet, UnterschleiBheim, Germany; 0.1 ml/kg b.w.). The whole reproductive tract was collected, weighed and examined for any clinical signs. Small pieces of the corpus uteri and the mid-jejunum were dissected, placed into 1 mL of RNAlater, and stored overnight at 4° C. The next day, all the tissue samples were transferred to −80° C. for long-term storage, and until processed for transcriptomics analysis.
miRNA Extraction and Library Preparation: A total of 18 animals was used for investigations on the miRNA profile in the tissues: 6 from Ctrl, 4 from ZEN low, 4 from ZEN medium, and 4 from ZEN high. About 30 mg of tissue from uterus or jejunum was disrupted via a bead-beating step, and the total RNA, including RNA from approximately 18 nucleotides upwards, was extracted and purified with the miRNeasy Mini Kit (Qiagen, Hilden, Germany), following the manufacturer's instructions. The concentration of RNA was first estimated on the Nanodrop (Termo Scientifc NanoDrop 2000, USA), and again with the Agilent 2100 Bioanalyzer (Agilent Technologies, Germany) during the measurement of the RIN for determining the RNA quality. In total 1 μg of total RNA was used for construction of small RNA sequencing libraries using the NEBNext Multiplex SmallRNA Library preparation set for Illumina (New England Biolabs). Adapter-ligated total RNA was reverse transcribed into cDNA, which was used as template for PCR amplification (15 cycles) using Illumina's SR Primer and Index Primers 1-18. Barcoded DNA libraries were purified using the QIAQuick PCR purification protocol (Qiagen, Hilden, Germany) and quantified using the DNA 1000 high sensitivity chip (Agilent Technologies, Germany). Purified samples were pooled at equimolar (50 nM) concentration. Size selection was performed using gel purification to select for insert sizes between 18 and 50 nucleotides. The final multiplexed (n=18) libraries were sequenced on a NextSeq 500 sequencing instrument according to the manufacturer instructions. Raw data was de-multiplexed and FASTQ files for each sample was generated using the bcl2fastq software (Illumina inc.). FASTQ data was checked using the FastQC online tool (http://www.bioinformatics.babraham.ac.uk/projects/fastqc/).
RNA sequencing (RNA-Seq) Bioinformatics Analysis: Total reads were adapter trimmed using Cutadapt and quality filtered (Q-Score >30) using the FastQC tool. Trimmed and quality filtered reads were aligned to reference miRNA sequences in miRBase release 21 (www.mirbase.org; Kozomora and Griffiths-Jones. 2014. Nucleid Acids Research, 42, D68-D73) using bowtie2. Subsequently, reads were mapped against the Sus scrofa genome assembly Sscrofa10.2 as well as Ensembl small non-coding RNA reference databases. Reads were normalized to the total read count per library to generate tags per million (TPM) values. […]

[2] = system: prepuberal gilts; details: prepuberal gilts fed diets containing 1-5 ppm ZEN; Osweiler; cited from earlier work
[3] = Ctrl vs ZEN high (4.6 mg/kg diet), 28 days in feed
[4] = Ctrl vs ZEN low (0.17 mg/kg diet), 28 days in feed
[5] = ZEN high group (4.6 mg/kg diet) vs Ctrl, 28 days in feed
[6] = both ZEN medium (1.5 mg/kg diet) and ZEN high (4.6 mg/kg diet) group vs Ctrl, 28 days in feed

C[C@H]1CCCC(=O)CCC/C=C/c2cc(O)cc(O)c2C(=O)O1 [ZEN, (2E,11S)-15,17-dihydroxy-11-methyl-12-oxabicyclo[12.4.0]octadeca-1(18),2,14,16-tetraene-7,13-dione]
log2 fold change of hsa-miR-135b-5p in uterus [1, 3]: log2 fold change Ctrl vs ZEN high ≤ −1.5,
log2 fold change of hsa-miR-301a-5p in uterus [1, 3]: log2 fold change Ctrl vs ZEN high ≤ −1.5,
log2 fold change of put-miR-300 in uterus [1, 3]: ZEN high ≤ −1.5, TPM > 10
log2 fold change of ssc-miR-22-3p in uterus [1, 3]: Ctrl vs ZEN high ≥ 1.5; TPM > 10
log2 fold change of ssc-miR-129a in uterus [1, 3]: log2 fold change Ctrl vs ZEN high < −1.5,
log2 fold change of ssc-miR-135 in uterus [1, 3]: ZEN high ≤ −1.5, TPM > 10
log2 fold change of ssc-miR-143-5p in uterus [1, 3]: ZEN high ≥ −1.5, TPM > 10
log2 fold change of ssc-miR-187 in uterus [1, 3]: Crtrl vs ZEN high ≤ −1.5
log2 fold change of ssc-miR-204 in uterus [1, 3]: log2 fold change Ctrl vs ZEN high ≤ −1.5,
log2 fold change of ssc-miR-432-5p in uterus [1, 3]: change Ctrl vs ZEN high ≥ 1.5, specificity
log2 fold change of ssc-miR-493-3p in uterus [1, 3]: log2 fold change Ctrl vs ZEN high ≥ 1.5,
log2 fold change of ssc-miR-542-3p in uterus [1, 3]: ZEN high ≥ 1.5, TPM > 10
log2 fold change of ssc-miR-758 in uterus [1, 3]: change Ctrl vs ZEN high ≥ 1.5
log2 fold change of hsa-miR-135b-5p in uterus [1, 4]: log2 fold change Ctrl vs ZEN low ≤ −0.3,
log2 fold change of hsa-miR-301a-5p in uterus [1, 4]: log2 fold change Ctrl vs ZEN low ≤ −0.3,
log2 fold change of ssc-miR-22-3p in uterus [1, 4]: change Ctrl vs ZEN low ≥ 0.3, log2 fold
log2 fold change of ssc-miR-133a-5p in uterus [1, 4]: change Ctrl vs ZEN low ≥ 0.3, TPM > 10
log2 fold change of ssc-miR-195 in uterus [1, 4]: change Ctrl vs ZEN low ≥ 0.3, TPM > 10
log2 fold change of ssc-miR-486 in uterus [1, 4]: change Ctrl vs ZEN low ≥ 0.3, TPM > 10
log2 fold change of ssc-miR-493-5p in uterus [1, 4]: change Ctrl vs ZEN low ≥ 0.3, TPM > 10,
log2 fold change of ssc-miR-497 in uterus [1, 4]: change Ctrl vs ZEN low ≥ 0.3, TPM > 10
log2 fold change of ssc-miR-708-3p in uterus [1, 4]: low ≤ −0.3, TPM > 10
log2 fold change of ssc-miR-187 in uterus ([1]; Ctrl vs ZEN medium (1.5 mg/kg diet), 28 days in feed): vs ZEN medium ≤ −0.3, log2 fold change
fold change of ssc-miRNA-542-3p in uterus compared to the control group ([1]; ZEN high (4.6 mg/kg diet)): +12.6
fold change of ssc-miRNA-204 in uterus compared to the control group ([1]; ZEN high (4.6 mg/kg diet), lowest fold change of the group): −4.1
Response to ZEN treatment in uterus: hsa-miR-135b-5p [1, 5]: Significantly decreased in ZEN high
Response to ZEN treatment in uterus: hsa-miR-301a-5p [1, 5]: Significantly decreased in ZEN high
Response to ZEN treatment in uterus: ssc-miR-22-3p [1, 5]: Significantly increased in ZEN high group,
Response to ZEN treatment in uterus: ssc-miR-22-5p [1, 5]: Significantly increased in ZEN high group,
Response to ZEN treatment in uterus: ssc-miR-34a [1, 5]: Significantly increased in ZEN high group
Response to ZEN treatment in uterus: ssc-miR-125a [1, 5]: Significantly decreased in ZEN high
Response to ZEN treatment in uterus: ssc-miR-125b [1, 5]: Significantly decreased in ZEN high
Response to ZEN treatment in uterus: ssc-miR-127 [1, 5]: Significantly increased in ZEN high group
Response to ZEN treatment in uterus: ssc-miR-129a [1, 5]: Significantly decreased in ZEN high
Response to ZEN treatment in uterus: ssc-miR-133a-5p [1, 5]: Significantly increased in ZEN high group,
Response to ZEN treatment in uterus: ssc-miR-135 [1, 5]: Significantly decreased in ZEN high
Response to ZEN treatment in uterus: ssc-miR-136 [1, 5]: Significantly increased in ZEN high group,
Response to ZEN treatment in uterus: ssc-miR-140-3p [1, 5]: Significantly increased in ZEN high group,
Response to ZEN treatment in uterus: ssc-miR-142-3p [1, 5]: Significantly increased in ZEN high group,
Response to ZEN treatment in uterus: ssc-miR-146b [1, 5]: Significantly decreased in ZEN high
Response to ZEN treatment in uterus: ssc-miR-182 [1, 5]: Significantly increased in ZEN high group
Response to ZEN treatment in uterus: ssc-miR-183 [1, 5]: Significantly increased in ZEN high group,
Response to ZEN treatment in uterus: ssc-miR-195 [1, 5]: Significantly increased in ZEN high group,
Response to ZEN treatment in uterus: ssc-miR-204 [1, 5]: Significantly decreased in ZEN high
Response to ZEN treatment in uterus: ssc-miR-369 [1, 5]: Significantly increased in ZEN high group
Response to ZEN treatment in uterus: ssc-miR-378 [1, 5]: Significantly increased in ZEN high group
Response to ZEN treatment in uterus: ssc-miR-432-5p [1, 5]: Significantly increased in ZEN high group,
Response to ZEN treatment in uterus: ssc-miR-455-3p [1, 5]: Significantly increased in ZEN high group,
Response to ZEN treatment in uterus: ssc-miR-455-5p [1, 5]: Significantly increased in ZEN high group,
Response to ZEN treatment in uterus: ssc-miR-486 [1, 5]: Significantly increased in ZEN high group,
Response to ZEN treatment in uterus: ssc-miR-493-3p [1, 5]: Significantly increased in ZEN high group,
Response to ZEN treatment in uterus: ssc-miR-493-5p [1, 5]: Significantly increased in ZEN high group,
Response to ZEN treatment in uterus: ssc-miR-708-3p [1, 5]: Significantly decreased in ZEN high
Response to ZEN treatment in uterus: ssc-miR-758 [1, 5]: Significantly increased in ZEN high group,
Response to ZEN treatment in uterus: put-miR-300 ([1]; ZEN medium (1.5 mg/kg diet) and high (4.6 mg/kg diet) group vs Ctrl, 28 days in feed): Significantly decreased in ZEN medium
fold change of ssc-miRNA-542-3p in uterus compared to the control group ([1]; ZEN medium (1.5 mg/kg diet)): +3.9
fold change of ssc-miRNA-187 in uterus compared to the control group ([1]; ZEN medium (1.5 mg/kg diet), lowest fold change of the group): −3.4
Response to ZEN treatment in uterus: ssc-miR-1 [1, 6]: Significantly increased in both ZEN
Response to ZEN treatment in uterus: ssc-miR-143-5p [1, 6]: Significantly increased in both ZEN
Response to ZEN treatment in uterus: ssc-miR-181c [1, 6]: Significantly decreased in both ZEN
Response to ZEN treatment in uterus: ssc-miR-187 [1, 6]: Significantly decreased in both ZEN
Response to ZEN treatment in uterus: ssc-miR-206 [1, 6]: Significantly increased in both ZEN
Response to ZEN treatment in uterus: ssc-miR-335 [1, 6]: Significantly decreased in both ZEN
Response to ZEN treatment in uterus: ssc-miR-424-5p [1, 6]: Significantly increased in both ZEN
Response to ZEN treatment in uterus: ssc-miR-450a [1, 6]: Significantly increased in both ZEN
Response to ZEN treatment in uterus: ssc-miR-450b-5p [1, 6]: Significantly increased in both ZEN
Response to ZEN treatment in uterus: ssc-miR-450c-5p [1, 6]: Significantly increased in both ZEN
Response to ZEN treatment in uterus: ssc-miR-497 [1, 6]: Significantly increased in both ZEN
Response to ZEN treatment in uterus: ssc-miR-503 [1, 6]: Significantly increased in both ZEN
Response to ZEN treatment in uterus: ssc-miR-542-3p [1, 6]: Significantly increased in both ZEN
Response to ZEN treatment in uterus: ssc-miR-7135-3p [1, 6]: Significantly increased in both ZEN
mammary gland development [2]: triggered
